Source: the COVID Moonshot data (paper PMC7615835)
Where “and” joins values, the source holds several entries; their conditions need not be identical. Equal entries are not always repeated.

These compounds were tested against SARS-CoV-2 Main Protease (SARS-CoV-2) (UniProt P0DTD1).

Going from `COc1ncncc1C(C(=O)NCCc1cccc(F)c1)N(C(=O)c1cocn1)c1ccc(C(C)(C)C)cc1` (centres undefined) to `O=C(NCCc1cccc(F)c1)C(c1cccnc1)N(C(=O)c1cocn1)c1ccc(-n2cc[nH]c2=O)cc1` (centres undefined), the IC50 rises from 8.43 µM to 45.1 µM (5.3-fold). The first is the more potent here.

`Cc1ccc2ncnc(NCc3ccc4nonc4c3)c2c1` and `Cc1nnc(CNc2ccc3nnc(-c4ccccc4)n3n2)o1` cannot be ordered by IC50: > 99.5 µM for the first, > 99.5 µM for the second.

First: Cn1cc(CN(C(=O)Cn2nnc3ccccc32)c2ccc(N3CCCCC3)cc2)cn1
Second: O=C(c1cc(=O)[nH]c2ccccc12)N1CCN(c2ccccc2)CC1
The IC50 of the first is higher: > 99.5 µM for the first, 27.5 µM for the second. The second is the more potent here.

Going from `Cc1noc(C)c1S(=O)(=O)N1CCN(C(=O)CCl)CC1` to `Cc1ccc(S(=O)(=O)N2CCN(C(=O)CCl)C[C@H]2C(=O)NCCc2ccccc2)cc1` (stereo in doubt), the IC50 rises from 4.06 µM to 11.8 µM (2.9-fold).

`O=C(NCCc1cccc(F)c1)C(c1cccnc1)N(C(=O)c1cnc[nH]1)c1cccc(Oc2cccnn2)c1` (centres undefined) and `COc1ccccc1CN(C(=O)c1cnc[nH]1)C(C(=O)NCCc1cccc(F)c1)c1cccnc1` (centres undefined) cannot be ordered by IC50: > 99 µM for the first, > 99 µM for the second.

First: C=CC(=O)N(c1ccc(C(C)(C)C)cc1)C(C(=O)Nc1ccc2c(c1)OCO2)c1cccnc1 (centres undefined)
Second: C=CC(=O)N(c1ccc(C(C)(C)C)cc1)C(C(=O)NCC1CCCO1)c1cccnc1 (centres undefined)
The IC50 of the first is 2.5-fold lower: 36.1 µM for the first, 90.5 µM for the second.

Going from `CC1(C(=O)Nc2cncc3ccccc23)CNC(=O)c2ccc(Cl)cc21` (centres undefined) to `O=C(Nc1cncc2ccccc12)C12CCC(O1)c1cc(Cl)ccc12` (centres undefined), the IC50 rises from 0.876 µM to 2.39 µM (2.7-fold).

First: N#Cc1cc(F)c(Nc2cc(Cl)cc(CC(=O)Nc3cncc4ccccc34)c2)cc1F
Second: O=C(Cc1cc(Cl)cc(Nc2ccccc2)c1)Nc1cncc2ccccc12
The IC50 of the first is lower: 2.12 µM for the first, > 9.95 µM for the second. The first is the more potent here.

Compared with `O=C(Nc1cncc2ccccc12)[C@@H]1COc2ccc(Cl)cc2C1` (stereo in doubt), `O=C(Nc1cncc2ccccc12)C1=CCCc2ccc(Cl)cc21` is lower in IC50: > 99.5 µM for the first, 0.233 µM for the second. The second is the more potent here.

Going from `CNC(=O)C1(CC(=O)Nc2cncc3ccccc23)CCOc2ccc(Cl)cc21` (centres undefined) to `N#CCC1(CS(=O)(=O)N2Cc3ccc(Cl)cc3C(C(=O)Nc3cncc4ccccc34)C2)CC1` (centres undefined), the IC50 falls from 30.7 µM to 0.128 µM (240-fold). The second is the more potent here.

First: Cc1nc(Cl)c(Nc2cc(Cl)cc(CC(=O)Nc3cncc4ccccc34)c2)c(Cl)n1
Second: CCN(Cc1ccc(F)cc1)c1cc(Cl)cc(CC(=O)Nc2cncc3ccccc23)c1
The IC50 of the first is lower: 1.64 µM for the first, > 99.5 µM for the second. The first is the more potent here.

`Cc1nc2cc(NC(=O)Cn3cnc4c(cnn4C)c3=O)ccc2o1` and `Cn1c(NC(=O)Cc2csc3nccn23)nc2ccc(F)cc21` cannot be ordered by IC50: > 99.5 µM for the first, > 99.5 µM for the second.

First: O=C(NCCc1cccc(F)c1)C(c1cccnc1)N(C(=O)c1cocn1)c1cn(Cc2ccccc2)cn1 (centres undefined)
Second: O=C(NCCc1cccc(F)c1)C(c1cccnc1)N(C(=O)c1cocn1)c1ccc(S(=O)(=O)C2CCCC2)cc1 (centres undefined)
The IC50 of the first is lower: 27.3 µM for the first, > 99.5 µM for the second. The first is the more potent here.

Compared with `CNc1cncc(NC(=O)C2CCOc3ccc(Cl)cc32)c1C` (centres undefined), `O=C(Nc1cnc2ccccn12)C1CCOc2ccc(Cl)cc21` (centres undefined) is 9.9-fold lower in IC50: 32.3 µM for the first, 3.26 µM for the second.

Going from `CCn1nccc1C(=O)N1Cc2ccc(Cl)cc2C2(CCN(c3cncc4ccccc34)C2=O)C1` (centres undefined) to `Cc1cc(C(=O)N2Cc3ccc(Cl)cc3C3(CCN(c4cncc5ccccc45)C3=O)C2)n(C)n1` (centres undefined), the IC50 rises from 0.297 µM to 0.464 µM (1.6-fold).

`O=C(NCc1nnc2c(=O)[nH]ccn12)c1ccnc2ccnn12` and `Cc1ccc2nnc(CNc3ccc4nnc(C(F)(F)F)n4n3)n2c1` cannot be ordered by IC50: > 99.5 µM for the first, > 99.5 µM for the second.

Going from `COC(=O)[C@H]1C[C@H](NC(=O)C(c2cccnc2)N(C(=O)c2cocn2)c2ccc(C(C)(C)C)cc2)CN1C(=O)OC(C)(C)C` (stereo in doubt) to `O=C(NCCc1cccc(F)c1)C(c1cccnc1)N(Cc1c(O)ccc2c1CCCC2)C(=O)c1ccco1` (centres undefined), the IC50 rises from 0.837 µM to 12.1 µM (14-fold). The first is the more potent here.

Compared with `CNC(=O)CN1C[C@H](C(=O)Nc2cncc3cc(Cl)ccc23)c2cc(Cl)ccc2C1=O` (stereo in doubt), `CS(=O)(=O)N1Cc2cc(F)c(Cl)cc2C(C(=O)Nc2cncc3ccccc23)C1` (centres undefined) is 1.7-fold higher in IC50: 0.149 µM for the first, 0.258 µM for the second. The first is the more potent here.

`CCS(=O)(=O)c1cc(Cl)cc(CNS(=O)(=O)c2cccs2)c1` and `O=C1Cc2ccccc2N(C(=O)Cc2cccc(Cl)c2)C1` cannot be ordered by IC50: > 99.5 µM for the first, > 99.5 µM for the second.

Going from `COc1cccc2[nH]c(=O)cc(C(=O)N3CCN(c4cccc(Cl)c4)CC3)c12` to `O=C(Cc1cc(Cl)cc(N2CCN(c3ncccn3)CC2)c1)Nc1cncc2ccccc12`, the IC50 falls from 4.68 µM to 2.52 µM (1.9-fold).

Going from `O=C(Nc1cncc2c1CCCC2)C1CNS(=O)(=O)c2ccc(Cl)cc21` (centres undefined) to `N#CC1(CS(=O)(=O)N2Cc3ccc(Cl)cc3[C@@H](C(=O)Nc3cncc4ccccc34)C2)CNC1` (stereo in doubt), the IC50 rises from 0.452 µM to 1.62 µM (3.6-fold).

Compared with `Cc1ccncc1NC(=O)N(Cc1ccccc1)c1cccc(Cl)c1`, `COC1(c2cccc(Cl)c2)CCCN(c2cncc3ccccc23)C1=O` (centres undefined) is 11-fold lower in IC50: 22.9 µM for the first, 2.08 µM for the second. The second is the more potent here.

`CC(NC(=O)c1nccc2cccnc12)c1ccc2[nH]c(=O)oc2c1` (centres undefined) and `O=C(Nc1cncc2ccccc12)C1CCOc2c(OCC3CC3)cc(Cl)cc21` (centres undefined) cannot be ordered by IC50: > 99.5 µM for the first, > 2.49 µM for the second.

For `COC1(CS(=O)(=O)N2Cc3ccc(Cl)cc3C(C(=O)Nc3cncc4ccc(C(C)(C)O)cc34)C2)CC1` (centres undefined), the IC50 was 1.77 µM.

`Cn1nc(C(=O)NC(C)(C(=O)Nc2cncc3ccccc23)c2ccc(Cl)c(Cl)c2)cc1C#N` (centres undefined) was tested, and the IC50 was 7.58 µM and 14.1 µM.
`CC1(CS(=O)(=O)N2Cc3ccc(Cl)cc3C(C(=O)Nc3cncc4cc(S(C)(=O)=O)ccc34)C2)CS(=O)(=O)C1` (centres undefined) was tested, and the IC50 was 0.0836 µM and 0.147 µM.
